# Test results published in US20240376100A1 (Redona Therapeutics, Inc., priority 2021, published 2024).
# Structures can show the parent of a compound that is named as a salt.
# Biological target: PAPD5 enzyme (Homo sapiens, UniProt Q8NDF8)
# Test: PAPD5 assay (AMP incorporation onto 3'-terminus of RNA substrate, fluorescence quench)
# Type: biochemical
# Details: PAPD5 protein 0.3 nM, ATP 50 μM, 30 minutes preincubation, room temperature; read-out: Potency PAPD5 IC50
# Method: The purpose of the PAPD5 assay is to determine compound potency against PAPD5 enzyme through the measurement of IC50. Compound inhibition is measured as a function of AMP incorporation onto the 3′-terminus of an RNA substrate in the presence of active PAPD5, ATP, and inhibitor. The PAPD5 assay was done in a black, non-binding, 384 well plate (Corning #3575). All steps were performed at room temperature. For a typical assay, a 40 ul aliquot of assay buffer (50 mM HEPES pH 7.3, 20 mM KCl, 10 mM MgCl2, 10 mMM DTT, 0.01% Triton X-100, 40 U/ml RNAsin (Promega)) containing PAPD5 protein (final 10 concentration: 0.3 nM) and ATP (final concentration 50 μM) was added to each well. Next, 1 ul of compound in 100% DMSO is transferred from a compound dilution plate in which the compound is serially diluted. The plate was placed on a plate shaker for 30 seconds to produce mixing, then incubated for 30 minutes. Next, 10 ul of a 5× mix of RNA substrate (5′-fluorescein-AUAGAG-3′ (IDT)) and a DNA oligonucleotide that is complementary to the AMP modified RNA product (5′-TCTCTATT-3′-TAMRA, wherein the first two nucleotides are locked nucleic acids (IDT)) was added (final concentrations: 5 nM and 20 nM, respectively). The plate was placed on a plate shaker for 30 seconds to produce mixing then immediately placed in a Biotek Cytation 5 plate reader, and the time-dependent decrease in fluorescein fluorescence resulting from annealing of the TAMRA labeled quenching probe was recorded, using the kinetics mode of the reader (typical run time is 90 minutes). Reaction rates were obtained using linear fits to the early portion of progress curves. IC50 values were calculated using a four-parameter fit with 100% enzyme activity determined from the DMSO control and 0% activity from control samples lacking UTP.
# “+” represents an IC50 value that is greater than 50 PM; “++” represents an IC50 value that is greater than 10 μM and equal to or less than 50 μM; “+++” represents an IC50 value that is greater than 1 μM and equal to or less than 10 μM; and “++++” represents an IC50 value that is equal to or less than 1 μM.
# Chain of PAPD5 enzyme (Q8NDF8 whole entry): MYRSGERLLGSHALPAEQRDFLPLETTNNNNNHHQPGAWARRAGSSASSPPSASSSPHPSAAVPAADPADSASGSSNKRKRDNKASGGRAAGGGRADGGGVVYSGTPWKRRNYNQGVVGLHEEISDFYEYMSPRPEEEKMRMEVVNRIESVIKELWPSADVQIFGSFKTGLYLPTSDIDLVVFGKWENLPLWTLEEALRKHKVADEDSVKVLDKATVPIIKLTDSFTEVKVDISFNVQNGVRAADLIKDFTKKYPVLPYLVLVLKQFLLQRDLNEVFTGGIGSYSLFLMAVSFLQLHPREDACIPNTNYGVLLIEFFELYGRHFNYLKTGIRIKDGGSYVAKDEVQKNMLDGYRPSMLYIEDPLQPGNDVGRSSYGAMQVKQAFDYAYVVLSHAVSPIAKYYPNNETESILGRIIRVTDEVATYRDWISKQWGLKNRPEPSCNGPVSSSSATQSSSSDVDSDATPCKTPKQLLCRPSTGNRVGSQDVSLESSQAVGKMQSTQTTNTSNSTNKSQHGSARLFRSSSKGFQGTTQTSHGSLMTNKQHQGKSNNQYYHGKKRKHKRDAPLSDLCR
row,SMILES,IC50 [µM]
1,"CS(=O)(=O)Nc1ccc(-n2cc(C(=O)O)c(=O)c3cc(C#N)c(N4Cc5cccnc5C4)cc32)c(F)c1 [Example 57, 6-cyano-7-(5,7-dihydro-6H-pyrrolo[3,4-b]pyridin-6-yl)-1-(2-fluoro-4-(methylsulfonamido)phenyl)-4-oxo-1,4-dihydroquinoline-3-carboxylic acid]",≤ 1
2,"COCCOc1ccc(-n2cc(C(=O)O)c(=O)c3cc(C#N)c(N4Cc5cccnc5C4)cc32)cn1 [Example 58, 6-cyano-7-(5,7-dihydro-6H-pyrrolo[3,4-b]pyridin-6-yl)-1-(6-(2-methoxyethoxy)pyridin-3-yl)-4-oxo-1,4-dihydroquinoline-3-carboxylic acid]",≤ 1
3,"CN(C)CCOc1ccc(-n2cc(C(=O)O)c(=O)c3cc(C#N)c(N4Cc5cccnc5C4)cc32)cn1 [Example 59, 6-cyano-7-(5,7-dihydro-6H-pyrrolo[3,4-b]pyridin-6-yl)-1-(6-(2-(dimethylamino)ethoxy)pyridin-3-yl)-4-oxo-1,4-dihydroquinoline-3-carboxylic acid hydrochloride]",≤ 1
4,"Cc1cc(O)ncc1-n1cc(C(=O)O)c(=O)c2cc(C#N)c(N3Cc4cccnc4C3)cc21 [Example 60, 6-cyano-7-(5,7-dihydro-6H-pyrrolo[3,4-b]pyridin-6-yl)-1-(6-hydroxy-4-methylpyridin-3-yl)-4-oxo-1,4-dihydroquinoline-3-carboxylic acid]",≤ 1
5,"CC1(Cn2cc(C(=O)O)c(=O)c3cc(Cl)c(N4Cc5cccnc5C4)nc32)CCC1 [Example 61, 6-chloro-7-(5,7-dihydro-6H-pyrrolo[3,4-b]pyridin-6-yl)-1-((1-methylcyclobutyl)methyl)-4-oxo-1,4-dihydro-1,8-naphthyridine-3-carboxylic acid]",≤ 1
6,"N#Cc1cc2c(=O)c(C(=O)O)cn(CC3CCCC3)c2nc1N1Cc2cccnc2C1 [Example 62, 6-cyano-1-(cyclopentylmethyl)-7-(5,7-dihydro-6H-pyrrolo[3,4-b]pyridin-6-yl)-4-oxo-1,4-dihydro-1,8-naphthyridine-3-carboxylic acid]",≤ 1
7,"N#Cc1cc2c(=O)c(C(=O)O)cn(CC3CCCCC3)c2nc1N1Cc2cccnc2C1 [Example 63, 6-cyano-1-(cyclohexylmethyl)-7-(5,7-dihydro-6H-pyrrolo[3,4-b]pyridin-6-yl)-4-oxo-1,4-dihydro-1,8-naphthyridine-3-carboxylic acid]",≤ 1
8,"Cc1ccnc2c1CN(c1nc3c(cc1Cl)c(=O)c(C(=O)O)cn3-c1cnccn1)C2 [Example 64, 6-chloro-7-(4-methyl-5,7-dihydro-6H-pyrrolo[3,4-b]pyridin-6-yl)-4-oxo-1-(pyrazin-2-yl)-1,4-dihydro-1,8-naphthyridine-3-carboxylic acid]",≤ 1
9,"O=C(O)c1cn(Cc2ccccn2)c2nc(N3Cc4cccnc4C3)c(Cl)cc2c1=O [Example 65, 6-chloro-7-(5,7-dihydro-6H-pyrrolo[3,4-b]pyridin-6-yl)-4-oxo-1-(pyridin-2-ylmethyl)-1,4-dihydro-1,8-naphthyridine-3-carboxylic acid]",≤ 1
10,"CC(C)(C)OC(=O)N1CCC(Cn2cc(C(=O)O)c(=O)c3cc(Cl)c(N4Cc5cccnc5C4)nc32)CC1 [Example 72, 1-((1-(tert-butoxycarbonyl)piperidin-4-yl)methyl)-6-chloro-7-(5,7-dihydro-6H-pyrrolo[3,4-b]pyridin-6-yl)-4-oxo-1,4-dihydro-1,8-naphthyridine-3-carboxylic acid]",≤ 1
11,"CC(C)(C)OC(=O)N1CCC(n2cc(C(=O)O)c(=O)c3cc(Cl)c(N4Cc5cccnc5C4)nc32)CC1 [Example 73, 1-(1-(tert-butoxycarbonyl)piperidin-4-yl)-6-chloro-7-(5,7-dihydro-6H-pyrrolo[3,4-b]pyridin-6-yl)-4-oxo-1,4-dihydro-1,8-naphthyridine-3-carboxylic acid]",≤ 1

# Now from value to compound:
row,IC50 [µM],SMILES
1,≤ 1,"O=C(O)c1cn(Cc2ccncc2)c2nc(N3Cc4cccnc4C3)c(Cl)cc2c1=O [Example 66, 6-chloro-7-(5,7-dihydro-6H-pyrrolo[3,4-b]pyridin-6-yl)-4-oxo-1-(pyridin-4-ylmethyl)-1,4-dihydro-1,8-naphthyridine-3-carboxylic acid]"
2,≤ 1,"O=C(O)c1cn(Cc2cccnc2)c2nc(N3Cc4cccnc4C3)c(Cl)cc2c1=O [Example 67, 6-chloro-7-(5,7-dihydro-6H-pyrrolo[3,4-b]pyridin-6-yl)-4-oxo-1-(pyridin-3-ylmethyl)-1,4-dihydro-1,8-naphthyridine-3-carboxylic acid]"
3,≤ 1,"O=C(O)c1cn(Cc2ccccc2F)c2nc(N3Cc4cccnc4C3)c(Cl)cc2c1=O [Example 68, 6-chloro-7-(5,7-dihydro-6H-pyrrolo[3,4-b]pyridin-6-yl)-1-(2-fluorobenzyl)-4-oxo-1,4-dihydro-1,8-naphthyridine-3-carboxylic acid]"
4,≤ 1,"O=C(O)c1cn(Cc2ccccc2Cl)c2nc(N3Cc4cccnc4C3)c(Cl)cc2c1=O [Example 69, 6-chloro-1-(2-chlorobenzyl)-7-(5,7-dihydro-6H-pyrrolo[3,4-b]pyridin-6-yl)-4-oxo-1,4-dihydro-1,8-naphthyridine-3-carboxylic acid]"
5,≤ 1,"Cc1ccccc1Cn1cc(C(=O)O)c(=O)c2cc(Cl)c(N3Cc4cccnc4C3)nc21 [Example 70, 6-chloro-7-(5,7-dihydro-6H-pyrrolo[3,4-b]pyridin-6-yl)-1-(2-methylbenzyl)-4-oxo-1,4-dihydro-1,8-naphthyridine-3-carboxylic acid]"
6,≤ 1,"COc1ncccc1Cn1cc(C(=O)O)c(=O)c2cc(Cl)c(N3Cc4cccnc4C3)nc21 [Example 71, 6-chloro-7-(5,7-dihydro-6H-pyrrolo[3,4-b]pyridin-6-yl)-1-((2-methoxypyridin-3-yl)methyl)-4-oxo-1,4-dihydro-1,8-naphthyridine-3-carboxylic acid]"
7,≤ 1,"COc1cnc(-n2cc(C(=O)O)c(=O)c3cc(Cl)c(N4Cc5cccnc5C4)nc32)cn1 [Example 74, 6-chloro-7-(5,7-dihydro-6H-pyrrolo[3,4-b]pyridin-6-yl)-1-(5-methoxypyrazin-2-yl)-4-oxo-1,4-dihydro-1,8-naphthyridine-3-carboxylic acid]"
8,≤ 1,"COc1cnc(-n2cc(C(=O)O)c(=O)c3cc(F)c(N4Cc5cccnc5C4)cc32)cn1 [Example 75, 7-(5,7-dihydro-6H-pyrrolo[3,4-b]pyridin-6-yl)-6-fluoro-1-(5-methoxypyrazin-2-yl)-4-oxo-1,4-dihydroquinoline-3-carboxylic acid]"
9,≤ 1,"COc1cnc(-n2cc(C(=O)O)c(=O)c3cc(Cl)c(N4Cc5cccnc5C4)cc32)cn1 [Example 76, 6-chloro-7-(5,7-dihydro-6H-pyrrolo[3,4-b]pyridin-6-yl)-1-(5-methoxypyrazin-2-yl)-4-oxo-1,4-dihydroquinoline-3-carboxylic acid]"
10,≤ 1,"Cc1cc(N)ncc1-n1cc(C(=O)O)c(=O)c2cc(F)c(N3Cc4cccnc4C3)nc21 [Example 77, 1-(6-amino-4-methylpyridin-3-yl)-7-(5,7-dihydro-6H-pyrrolo[3,4-b]pyridin-6-yl)-6-fluoro-4-oxo-1,4-dihydro-1,8-naphthyridine-3-carboxylic acid TFA salt]"
11,≤ 1,"Cc1cc(N)ncc1-n1cc(C(=O)O)c(=O)c2cc(Cl)c(N3Cc4cccnc4C3)nc21 [Example 78, 1-(6-amino-4-methylpyridin-3-yl)-6-chloro-7-(5,7-dihydro-6H-pyrrolo[3,4-b]pyridin-6-yl)-4-oxo-1,4-dihydro-1,8-naphthyridine-3-carboxylic acid TFA salt]"
12,≤ 1,"Cc1cc(N)ncc1-n1cc(C(=O)O)c(=O)c2cc(F)c(N3Cc4cccnc4C3)cc21 [Example 79, 1-(6-amino-4-methylpyridin-3-yl)-7-(5,7-dihydro-6H-pyrrolo[3,4-b]pyridin-6-yl)-6-fluoro-4-oxo-1,4-dihydroquinoline-3-carboxylic acid TFA salt]"
13,≤ 1,"Cc1cc(N)ncc1-n1cc(C(=O)O)c(=O)c2cc(C#N)c(N3Cc4cccnc4C3)cc21 [Example 80, 1-(6-amino-4-methylpyridin-3-yl)-6-cyano-7-(5,7-dihydro-6H-pyrrolo[3,4-b]pyridin-6-yl)-4-oxo-1,4-dihydroquinoline-3-carboxylic acid]"
14,≤ 1,"CC(=O)Nc1cc(C)c(-n2cc(C(=O)O)c(=O)c3cc(Cl)c(N4Cc5cccnc5C4)cc32)cn1 [Example 81, 1-(6-acetamido-4-methylpyridin-3-yl)-6-chloro-7-(5,7-dihydro-6H-pyrrolo[3,4-b]pyridin-6-yl)-4-oxo-1,4-dihydroquinoline-3-carboxylic acid]"
